This data set deals with human maximum recommended daily dose, FDA database. In words: DSSTox (FDAMDD) FDA Maximum (Recommended) Daily Dose Database. Conditions: stronger effect = lower value. The gist of the method:
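MRDD values come from clinical trials with daily oral dosing, usually for 3–12 months, for the average adult, in mg/day converted to mg/kg-bw/day assuming 60 kg. Antineoplastic mg/m2 doses are divided by 37. Activity score maps log10(1/MRDD mmol) onto 1–100.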

Where [1] appears, read: TherapeuticCategory: antineoplastic.
Where [2] appears, read: TherapeuticCategory: antibacterial.
[3] abbreviates: TherapeuticCategory: anticholinergic.
[4] abbreviates: TherapeuticCategory: antihyperlipoproteinemic.

With `CC(=O)O[C@H]1C[C@H](O[C@H]2[C@@H](O)C[C@H](O[C@H]3[C@@H](O)C[C@H](OC4CC[C@@]5(C)C(CC[C@@H]6[C@@H]5CC[C@]5(C)[C@@H](C7=CC(=O)OC7)[C@@H](O)C[C@]65O)C4)O[C@@H]3C)O[C@@H]2C)O[C@H](C)[C@H]1O[C@@H]1O[C@H](CO)[C@@H](O)[C@H](O)[C@H]1O` (stereo partly drawn), the maximum recommended daily dose (mmol/kg-bw/day) (TherapeuticCategory: cardiotonic) was 3.38e-05.

In the case of `Nc1nc(Cl)nc2c1ncn2[C@H]1C[C@H](O)[C@@H](CO)O1`, the maximum recommended daily dose (mmol/kg-bw/day) under setting [1] is 0.000315.

For `Cn1cc[nH]c1=S`, the maximum recommended daily dose (mmol/kg-bw/day) (TherapeuticCategory: antihyperthyroid) was 0.00876.

`Cc1cc(-c2ccc(N=Nc3ccc4c(S(=O)(=O)O)cc(S(=O)(=O)O)c(N)c4c3O)c(C)c2)ccc1N=Nc1ccc2c(S(=O)(=O)O)cc(S(=O)(=O)O)c(N)c2c1O`: the maximum recommended daily dose (mmol/kg-bw/day) (TherapeuticCategory: diagnostic aid) is 0.000347.

With `CCC[C@H](N[C@@H](C)C(=O)N1[C@H](C(=O)O)C[C@@H]2CCCC[C@@H]21)C(=O)OCC`, the maximum recommended daily dose (mmol/kg-bw/day) (TherapeuticCategory: antihypertensive, ACE inhibitor) is 0.000361.

`O=C(O)c1cc(-c2ccc(F)cc2F)ccc1O`: the maximum recommended daily dose (mmol/kg-bw/day) (TherapeuticCategory: analgesic, anti inflammatory) was 0.0999.

For the molecule `NC[C@@H]1O[C@H](O[C@H]2[C@@H](O)[C@H](O[C@@H]3[C@@H](O)[C@H](N)C[C@H](N)[C@H]3O[C@H]3O[C@H](CO)[C@@H](O)C[C@H]3N)O[C@@H]2CO)[C@H](N)[C@@H](O)[C@@H]1O[C@H]1O[C@H](CO)[C@@H](O)[C@H](O)[C@@H]1O`, the maximum recommended daily dose (mmol/kg-bw/day) under setting [2] was 0.0219.

Consider `CC1=CC(=O)c2ccccc2C1=O`, for which the maximum recommended daily dose (mmol/kg-bw/day) (TherapeuticCategory: prothrombogenic vitamin) is 0.000193.

Turning to `CN1[C@@H]2CC[C@H]1CC(OC(c1ccccc1)c1ccccc1)C2` (stereo partly drawn), the maximum recommended daily dose (mmol/kg-bw/day) under setting [3] is 0.000325.

Take `O[C@H]([C@H](O)[C@@H](O)CBr)[C@H](O)CBr`: under setting [1], the maximum recommended daily dose (mmol/kg-bw/day) is 0.0158.

Consider `CO[C@H]1C[C@H](O[C@H]2[C@H](C)[C@@H](O[C@@H]3O[C@H](C)C[C@H](N(C)C)[C@H]3OC(C)=O)[C@@H](C)C[C@]3(CO3)C(=O)[C@H](C)[C@@H](OC(C)=O)[C@@H](C)[C@@H](C)OC(=O)[C@@H]2C)O[C@@H](C)[C@@H]1OC(C)=O`, for which the maximum recommended daily dose (mmol/kg-bw/day) under setting [2] was 0.0409.

Take `CN1CCC(OC(c2ccccc2)c2ccccc2)CC1`: under “TherapeuticCategory: antihistaminic”, the maximum recommended daily dose (mmol/kg-bw/day) was 0.00118.

Turning to `NNC(=O)c1ccncc1`, the maximum recommended daily dose (mmol/kg-bw/day) under setting [2] is 0.0729.

As to `C[C@](O)(CS(=O)(=O)c1ccc(F)cc1)C(=O)Nc1ccc(C#N)c(C(F)(F)F)c1`, the maximum recommended daily dose (mmol/kg-bw/day) (TherapeuticCategory: antiandrogen, antineoplastic) was 0.00194.

As for `C1CCN2C[C@@H]3C[C@@H](CN4CCCC[C@@H]34)[C@H]2C1`, under “TherapeuticCategory: oxytocic”, the maximum recommended daily dose (mmol/kg-bw/day) is 0.0427.

Take `CN1CC[C@]23CCCC[C@H]2[C@H]1Cc1ccc(O)cc13`: under “TherapeuticCategory: narcotic analgesic”, the maximum recommended daily dose (mmol/kg-bw/day) is 0.000583.

As to `C[N+](C)(C)CC(O)CC(=O)[O-]` (stereo not drawn), the maximum recommended daily dose (mmol/kg-bw/day) under setting [4] was 0.104.

`O=C1C(CCS(=O)c2ccccc2)C(=O)N(c2ccccc2)N1c1ccccc1` (stereo not drawn): the maximum recommended daily dose (mmol/kg-bw/day) (TherapeuticCategory: uricosuric) was 0.0329.

Turning to `COC1CC(=C(c2cccs2)c2cccs2)C[N+](C)(C)C1` (stereo not drawn), the maximum recommended daily dose (mmol/kg-bw/day) under setting [3] is 0.00375.

For `O=C1CSC2(CCN(CCCN3c4ccccc4Sc4ccc(Cl)cc43)CC2)N1`, the maximum recommended daily dose (mmol/kg-bw/day) (TherapeuticCategory: antipsychotic) is 0.0155.

For the molecule `CCCC(C)C1(CC)C(=O)NC(=S)NC1=O` (stereo not drawn), the maximum recommended daily dose (mmol/kg-bw/day) (TherapeuticCategory: short acting anesthetic) is 0.0172.

For `Cc1ccc(C)c(OCCCC(C)(C)C(=O)O)c1`, under setting [4], the maximum recommended daily dose (mmol/kg-bw/day) is 0.0799.

Regarding `OCCOCCN1CCN(C(c2ccccc2)c2ccc(Cl)cc2)CC1` (stereo not drawn), the maximum recommended daily dose (mmol/kg-bw/day) (TherapeuticCategory: anxiolytic, antihistaminic) is 0.0178.

Take `COc1ccc(C2C(=O)c3ccccc3C2=O)cc1`: for the setting “TherapeuticCategory: anticoagulant”, the maximum recommended daily dose (mmol/kg-bw/day) was 0.0198.

Regarding `CN1CCCN=C1/C=C/c1cccs1`, the maximum recommended daily dose (mmol/kg-bw/day) (TherapeuticCategory: anthelmintic) is 0.0969.

Take `CN1CC[C@]23c4c5ccc(O)c4O[C@H]2C(=O)CC[C@H]3[C@H]1C5`: the maximum recommended daily dose (mmol/kg-bw/day) (TherapeuticCategory: analgesic) was 0.0014.

Take `CCN(CC)CCOC(=O)C(O)(c1ccccc1)c1ccccc1`: for the setting “TherapeuticCategory: antidepressant, anticholinergic”, the maximum recommended daily dose (mmol/kg-bw/day) is 0.000458.

Turning to `CC(=O)OCC1=C(C(=O)O)N2C(=O)[C@@H](NC(=O)Cc3cccs3)[C@H]2SC1`, the maximum recommended daily dose (mmol/kg-bw/day) under setting [2] was 0.252.

The values are drawn from PubChem BioAssay AID1195 (EPA DSSTox, 2008).
